According to article PMC5347165, “Killing of Staphylococcus aureus and Salmonella enteritidis and neutralization of lipopolysaccharide by 17-residue bovine lactoferricins: improved activity of Trp/Ala-containing molecules” (Scientific Reports, 2017):

Tested on: S. enteritidis CVCC3377
Assay: Cell surface hydrophobicity, hexadecane partitioning
Assay type: cell-based, Salmonella enteritidis
Settings: peptide 1×, 2× or 4× MIC, 10 min 37 °C, increased from 9.43% (untreated) to this value, mean, n = 3
Procedure: The effects of AMPs on the cell surface hydrophobicity of S. aureus ATCC25923 and S. enteritidis CVCC3377 were measured using the hexadecane partitioning method. Cells were grown to stationary phase in Mueller-Hinton broth at 37 °C, harvested by centrifugation at 5000 rpm for 4 min, washed twice with sterile normal saline, and suspended in 0.1 M KNO3 (pH 6.2) to an OD600 nm of 0.4. […] Sterile normal saline was used as a negative control, and the optical density at 600 nm was measured as OD0. Subsequently, a 1.2-ml cell suspension was mixed with 0.2 ml of hexadecane by vortexing for 1 min, and then, the mixture was incubated for 15 min. The OD600 nm value of the aqueous phase was determined as OD1. The hydrophobicity percentages were calculated by the following equation: hydrophobicity (%) = (1 − OD1/OD0) × 100%. All experiments were repeated three times.

Sequence: FKAWRWAWRMKKLAAPS [Lfcin4, 17-residue LfcinB17-31 derivative, Trp/Ala-containing]
- cell surface hydrophobicity: 16.45%
